Reference: PubChem BioAssay (NCI)
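Protocol summary: plate cells (96-well), add compound at 5 concentrations, incubate 48 h, interpolate endpoints linearly. TGI marks complete inhibition of growth.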

What was measured:
Experiment in all cases: NCI tumour cell line growth inhibition, 48 h
HOP-18 NSCLC = system: HOP-18 NSCLC
SN12K1 renal = system: SN12K1 renal
P388/ADR leukemia = system: P388/ADR leukemia
KM20L2 colon = system: KM20L2 colon
XF 498 CNS = system: XF 498 CNS
P388 leukemia = system: P388 leukemia
LXFL 529 NSCLC = system: LXFL 529 NSCLC
RXF-631 renal = system: RXF-631 renal

SMILES | TGI (HOP-18 NSCLC) [µM] | TGI (SN12K1 renal) [µM] | TGI (P388/ADR leukemia) [µM] | TGI (KM20L2 colon) [µM] | TGI (XF 498 CNS) [µM] | TGI (P388 leukemia) [µM] | TGI (LXFL 529 NSCLC) [µM] | TGI (RXF-631 renal) [µM]
C=C1C(=O)O[C@@H]2[C@H](O)[C@@H](C)[C@@H]3C=CC(=O)[C@@]3(C)[C@H](OC(=O)C=C(C)C)[C@H]12 | 3.09 | 1.75 | 0.272 | 5.12 | 2.63 | 0.483 | – | –
O=c1c2ccccc2[nH]c2cc(O)cc(O)c12 | > 100 | – | – | – | > 100 | – | > 100 | –
CCCCCCC(C)OC(=O)/C=C(\CC(=O)OC(C)CCCCCC)C(=O)OC(C)CCCCCC (stereo unspecified) | – | – | – | > 100 | – | – | > 100 | –
COc1cc(C2c3cc4c(cc3[C@@H](Nc3cccc([N+](=O)[O-])c3)C3COC(=O)[C@H]23)OCO4)cc(OC)c1O (stereo partly specified) | 39.3 | 10.3 | 5.58 | > 42 | > 40.2 | – | – | –
CCN(CC)CCCC(C)NC(=O)c1ccc2c(c1)C(=O)c1ccccc1C2=O (stereo unspecified) | > 100 | – | – | 51.9 | 21.3 | – | 66.9 | 65.5
CS(=O)(=O)OCCCOS(C)(=O)=O | > 100 | – | – | > 100 | > 100 | – | > 100 | –
O=C1c2ccccc2C(=O)c2c(O)ccc(O)c21 | – | – | – | – | – | – | > 100 | –
